# According to patent US10119168B2, “Methods for the treatment of kidney fibrosis” (priority 2014, dated 2018):
# Columns and labels:
# mouse liver = assay: ANIT diet liver fibrosis model (Picrosirius red staining, qRT-PCR); settings: ANIT diet 4 weeks vs control diet
# From the text: Fibrosis is a universal pathological finding for chronic diseases in any organ(14) and it would be useful to identify biomarkers of fibrosis that are specific for an organ or be able to indicate their origin.
# Animals were housed in an Association for Assessment and Accreditation of Laboratory Animal Care International-accredited facility at Michigan State University and all procedures were approved by the Michigan State University Institutional Animal Care and Use Committee.
# (§1) Formalin fixed, paraffin embedded kidney sections were Masson Trichrome's stained and evaluated by a renal pathologist under a light microscope in blinded fashion relative to sample group. Percent area of fibrosis relative to the total section area was evaluated. Sirius red staining of the […] sections was performed at the Michigan State University Investigative Histopathology Laboratory.
# (§2) Total RNA was extracted from frozen kidney tissue using TRIzol reagent (Invitrogen). Following RNA concentration measurement by NanoDrop spectrophotometer (Thermo Fischer Scientific), 1 μg RNA was used for cDNA preparation using QuantiTect Reverse Transcription Kit from Qiagen (Valencia, Calif.). qRT-PCR using QuantiFast SYBR Green PCR Kit (Qiagen) was performed in 384-well plates on an Applied Biosystems 7900HT Fast Real-Time PCR System instrument with the following temperature profile: 3 min enzyme activation at 95° C. followed by 40 cycles of 95° C. for 10 s, and 55° C. for 30 s. Primer pairs used are listed in Supplementary Table 1. Gapdh was used as reference gene for normalization. The SDS 2.4 software (Applied Biosystems) was used to compute the threshold cycle (Cq) and the relative expression for an mRNA was assessed using the 2^−ΔCq method.
# [1] = system: kidney fibrosis after FA injection in mice; assay: Enalapril treatment in folic acid (FA) nephropathy model of kidney fibrosis (histology, qRT-PCR); format: in vivo, mouse; settings: day 14
# Method: Conversely, to test if the markers reflect recovery from fibrosis interventions on the renin-angiotensin system were used.
# Mice were sacrificed at 1, 2, 3, 7 and 14 days following administration. […] All mice were sacrificed at 14 days.
# as §1, §2
# [2] = enalapril 200 mg/l in drinking water after FA injection, kidney qRT-PCR vs control
SMILES,Mgp gene level (mouse liver),Scn7a gene level (mouse liver),Sytl2 gene level (mouse liver),collagen 1a1 gene expression (mouse liver),"kidney fibrosis development (histological assessment) ([1]; enalapril 200 mg/l continuously in drinking water after FA injection, vs plain water control)","reduction of collagen 1a1 mRNA expression ([1]; enalapril 200 mg/l in drinking water after FA injection, kidney qRT-PCR)","Cdh11 gene expression level [1, 2]","Gabrp gene expression level [1, 2]","Mrc1 gene expression level [1, 2]","Scn7a gene expression level [1, 2]","Smoc2 gene expression level [1, 2]"
"S=C=Nc1cccc2ccccc12 [ANIT, α-naphthylisothiocyanate]",significantly higher (p<0.05) gene levels,significantly higher (p<0.05) gene levels,significantly higher (p<0.05) gene levels,significantly increased collagen 1a1 gene expression,,,,,,,
CCOC(=O)[C@H](CCc1ccccc1)N[C@@H](C)C(=O)N1CCC[C@H]1C(=O)O [enalapril],,,,,reduced kidney fibrosis development,~3 fold,significant (p<0.05) decreases,significant (p<0.05) decreases,significant (p<0.05) decreases,significant (p<0.05) decreases,significant (p<0.05) decreases
